# Key:
# Caco-2 cells [1] = assay: Effects of 2'-FL on glycocalyx development in intestinal epithelial cells (qPCR of glycocalyx development genes); format: cell-based, human
# Protocol: (§1) Caco-2 cell culture: human colon adenocarcinoma cells Caco-2 were cultured in MEM complete medium containing 20% high-quality fetal bovine serum, grown in 25 cm^2 cell culture flasks and incubated in a carbon dioxide incubator at 37 °C, 5% CO2, and 95% relative humidity. The culture medium was changed every one or two days. When the cells reach 80%-90% confluence, the cells were digested with 0.25% trypsin digestion solution and subcultured at a ratio of 1:3.
# 1.1 Experiments: Caco-2 cells were adjusted to a density of 1 × 10^5 cells/cm^2 and inoculated in 24-well plates. According to groups, 2'-FL at concentrations of 0.6 mg/mL, 1.2 mg/mL, and 2.4 mg/mL was added to MEM complete medium, respectively. After incubation for 3 days, MEM medium was served as a blank control. Total RNA was extracted from the cells and reverse transcribed. Transcriptional levels of genes related to glycocalyx development, including glypican 1 (gpc1), hyaluronic acid synthases (has1, has2 and has3), and exostosin glycosyltransferases (ext1 and ext2) in the Caco-2 cells were measured by qPCR. qPCR primer sequences were shown in Table 1.
# (§2) qPCR kit manufacturer: Nanjing Vazyme Biotechnology Co., Ltd.; Catalog number: AceQ Universal U+ Probe Master Mix V2; amplification program: step 1: 37 °C for 2 min, and cycle number 1; step 2: 95 °C for 5 min, and cycle number 1; and step 3: 95 °C for 10 s, 60°C for 30 s, and cycle number 45.
# Caco-2 cells [2] = assay: Preventive effects of 2'-FL on glycocalyx damage caused by LPS (qPCR of glycocalyx development genes); format: cell-based, human; conditions: for transcriptional level of gpc1: then 100 ng/mL LPS 24 h; for transcriptional level of ext2 / transcriptional level of has2 / transcriptional level of has3 / transcription level of has1 / transcriptional level of ext1: then LPS
# Protocol: as §1, §2
# 2.1 Experiments: Caco-2 cells were adjusted to a density of 1 × 10^5 cells/cm^2 and inoculated in 24-well plates. According to groups, 2'-FL at concentrations of 0.6 mg/mL, 1.2 mg/mL, and 2.4 mg/mL was added to MEM complete medium, respectively. After incubation for 3 days, culture supernatant was removed, and fresh MEM complete medium with a final concentration of 100 ng/mL LPS was added and they are co-incubated for 24 h. Cells with added LPS but without 2'-FL were designated as a model group, and cells without added LPS or 2'-FL were designated as a blank group. Total RNA was extracted from the cells and reverse transcribed. Transcriptional levels of genes related to glycocalyx development, including glypican 1 (gpc1), hyaluronic acid synthases (has1, has2 and has3), and exostosin glycosyltransferases (ext1 and ext2), in the Caco-2 cells were measured by qPCR.
# [3] = all three concentrations of 2'-FL (0.6, 1.2, 2.4 mg/mL), 3 days, vs blank control, p < 0.05
# [4] = of 0.6, 1.2, 2.4 mg/mL tested, effect decreases with increasing concentration
# [5] = summary statement, 0.6mg/mL-1.2 mg/mL
# [6] = 2.4 mg/mL 2'-FL, compared to the model group, p < 0.05
# [7] = different concentrations of 2'-FL 3 days, compared with the blank group
# [8] = prevention group with different concentrations of 2'-FL, vs the blank group, p > 0.05
# [9] = summary statement, 0.6mg/mL-2.4 mg/mL
compound,measurement,setting,value
"C[C@@H]1O[C@@H](O[C@H]2[C@H](O[C@H]3[C@H](O)[C@@H](O)C(O)O[C@@H]3CO)O[C@H](CO)[C@H](O)[C@@H]2O)[C@@H](O)[C@H](O)[C@@H]1O (stereo partly shown) [2'-FL, 2'-fucosyllactose]",transcriptional level of ext1 mRNA,Caco-2 cells [1]; [3],significantly upregulate
same,transcriptional level of ext2 mRNA,Caco-2 cells [1]; [3],significantly upregulate
same,transcriptional level of gpc1 mRNA,Caco-2 cells [1]; [3],significantly upregulate
same,transcriptional level of has1 mRNA,Caco-2 cells [1]; [3],significantly upregulate
same,transcriptional level of has2 mRNA,Caco-2 cells [1]; [3],significantly upregulate
same,transcriptional level of has3 mRNA,Caco-2 cells [1]; [3],significantly upregulate
same,concentration at which the upregulation effect on the transcriptional level of ext1 reaches a maximum,Caco-2 cells [1]; [4],0.6 mg/mL
same,concentration at which the upregulation effect on the transcriptional level of ext2 reaches a maximum,Caco-2 cells [1]; [4],0.6 mg/mL
same,concentration at which the upregulation effect on the transcriptional level of has1 reaches a maximum,Caco-2 cells [1]; [4],0.6 mg/mL
same,concentration at which the upregulation effect on the transcriptional level of has2 reaches a maximum,Caco-2 cells [1]; [4],0.6 mg/mL
same,concentration at which the upregulation effect on the transcriptional level of has3 reaches a maximum,Caco-2 cells [1]; [4],0.6 mg/mL
same,concentration at which the upregulation effect on the transcriptional level of gpc1 reaches a maximum,"Caco-2 cells [1]; of 0.6, 1.2, 2.4 mg/mL tested, first increasing and then decreasing",1.2 mg/mL
same,transcriptional level of ext1,"Caco-2 cells [1]; summary statement, 0.6 mg/mL",significantly upregulate
same,transcriptional level of ext2,"Caco-2 cells [1]; summary statement, 0.6 mg/mL",significantly upregulate
same,transcriptional level of has1,"Caco-2 cells [1]; summary statement, 0.6 mg/mL",significantly upregulate
same,transcriptional level of has2,"Caco-2 cells [1]; summary statement, 0.6 mg/mL",significantly upregulate
same,transcriptional level of has3,"Caco-2 cells [1]; summary statement, 0.6 mg/mL",significantly upregulate
same,transcriptional level of gpc1,Caco-2 cells [1]; [5],significantly upregulate
same,transcriptional level of gpc1,"Caco-2 cells [2]; 0.6 mg/mL 2'-FL 3 days, compared with the blank group",significantly upregulate
same,transcriptional level of gpc1,"Caco-2 cells [2]; 1.2 mg/mL 2'-FL 3 days, compared with the blank group",significantly upregulate
same,transcriptional level of ext2,"Caco-2 cells [2]; 1.2 mg/mL 2'-FL, p<0.05",significantly upregulate
same,transcriptional level of has2,Caco-2 cells [2]; [6],significantly upregulated
same,transcriptional level of has3,Caco-2 cells [2]; [6],significantly upregulated
same,transcription level of has1,"Caco-2 cells [2]; 2.4 mg/mL 2'-FL, compared with the model group",significantly upregulated
same,transcriptional level of ext2,"Caco-2 cells [2]; 2.4 mg/mL 2'-FL, p<0.05",significantly upregulate
same,transcriptional level of ext1,Caco-2 cells [2]; [7],still upregulated
same,transcriptional level of ext2,Caco-2 cells [2]; [7],still upregulated
same,transcriptional level of gpc1,"Caco-2 cells [2]; different concentrations of 2'-FL (0.6, 1.2, 2.4 mg/mL) 3 days, compared with the blank group",still upregulated
same,transcriptional level of has2,Caco-2 cells [2]; [8],no significant differences
same,transcriptional level of has3,Caco-2 cells [2]; [8],no significant differences
same,transcription level of has1,"Caco-2 cells [2]; prevention groups with different concentrations of 2'-FL (0.6, 1.2, 2.4 mg/mL), compared with the blank group, p < 0.05",significantly downregulated
same,downregulation of the transcriptional level of gpc1 caused by LPS,Caco-2 cells [2]; [5],significantly prevent downregulation
same,downregulation of the transcriptional level of ext1 caused by LPS,Caco-2 cells [2]; [9],significantly prevent downregulation
same,downregulation of the transcriptional level of ext2 caused by LPS,Caco-2 cells [2]; [9],significantly prevent downregulation
same,downregulation of the transcriptional level of has2 caused by LPS,Caco-2 cells [2]; [9],significantly prevent downregulation
same,downregulation of the transcriptional level of has3 caused by LPS,Caco-2 cells [2]; [9],significantly prevent downregulation
same,transcriptional level of ext1,"Caco-2 cells [2]; three concentrations of 2'-FL (0.6, 1.2, 2.4 mg/mL), p<0.05",significantly upregulate

# — patent EP4809830A1, “USE OF 2'-FUCOSYLLACTOSE IN PROMOTING INTESTINAL DEVELOPMENT AND PREVENTING INTESTINAL DAMAGE” (Ausnutria Dairy (China) Co., Ltd., priority 2024, dated 2025)
